Laboratory results: patent publication US7704956B2, “Glutathione-based delivery system” (Industrial Technology Research Institute, priority 2005, dated 2010)

What was measured:
[1] = Pharmacokinetics of endomorphin-1 liposome (plasma, LC-MS/MS); type: in vivo, wistar mouse; details: 7.5 mg/kg, after 2 hr
Experimental: The plasma concentration of endomorphin-1 of a wistar mouse was analyzed by LC-MS/MS to study the pharmacokinetics of the endomorphin-1 liposome. […] However, the endomorphin-1 liposomes of Examples 14 and 17 prolonged the retention time of the endomorphin-1 in plasma to 24 hr. Also, T1/2 was prolonged from 6 min. to 2.4 hr and 1.8 hr, respectively.

[2] = Serum stability test of met-enkephalin liposome in fetal bovine serum; type: in vitro ADME; details: fetal bovine serum 1:1 (v/v), 37° C. water bath, 0, 1, 2 and 4 hours, gel filtration
Text: The 2 carriers provided by Example 5 and fetal bovine serum (FBS) were mixed with 1:1 (v/v) to form a solution.

Molecule	plasma concentration of endomorphin-1 [1]	residual concentration of met-enkephalin [2] [%]
NC(=O)[C@H](Cc1ccccc1)NC(=O)[C@H](Cc1c[nH]c2ccccc12)NC(=O)[C@@H]1CCCN1C(=O)[C@@H](N)Cc1ccc(O)cc1 [endomorphin-1 solution, endomorphin-1]	no endomorphin-1 was detected	
met-enkephalin [free met-enkephalin]		2
